Data: patent US12297193B2, “PTPN2/PTP1B degrader and therapeutic method thereof” (NORTHRIDGE HEALTH GROUP (HONG KONG) CO., LIMITED, priority 2023, dated 2025)
Entries after “also recorded” stand apart in the source; their conditions may differ. Like-named read-outs stand apart in the source and are kept apart here.

Experiments:
PTPN2 = molecular target: T1, PTPN2 (Homo sapiens, UniProt P17706); assay: Western blot, PTPN2 degradation in HEK293T cells; format: cell-based; conditions: 48 hours incubation; for DC50 / Dmax: Western blot; for DC50: read-out: Relative DC50, PTPN2 degradation; for Dmax: HEK-293T
T1 construct: endogenous in cells; host or cells: HEK293T
T1 sequence (P17706 1-415): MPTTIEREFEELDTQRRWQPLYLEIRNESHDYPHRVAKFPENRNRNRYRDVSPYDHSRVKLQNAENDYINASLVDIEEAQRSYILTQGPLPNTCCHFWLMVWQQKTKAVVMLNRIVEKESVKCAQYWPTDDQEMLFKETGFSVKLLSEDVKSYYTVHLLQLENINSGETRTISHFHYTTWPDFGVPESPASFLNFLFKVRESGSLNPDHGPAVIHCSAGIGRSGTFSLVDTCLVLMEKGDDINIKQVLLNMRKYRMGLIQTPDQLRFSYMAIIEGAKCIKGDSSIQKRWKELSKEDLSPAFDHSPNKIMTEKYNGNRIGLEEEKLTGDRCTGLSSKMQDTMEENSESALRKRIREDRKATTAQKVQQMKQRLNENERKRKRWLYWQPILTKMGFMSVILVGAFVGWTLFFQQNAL
Method: (§1) 1. Sample preparation: 150,000 HEK293T cells per well were seeded in a 24-well plate and incubated overnight. Compounds were added to the wells at the final concentrations of 20 μM, 10 μM, 5 μM, 2 μM, 1 μM, 500 nM, 200 nM, 100 nM, 50 nM, 20 nM, 5 nM, 0 nM (solvent control) and medium (negative control) and incubated for 48 hours. After incubation, the supernatants were discarded. Cells were washed with pre-chilled PBS once, 40 μL cell lysis buffer were added to lyse the cells and then centrifuged at 14000 g, 4° C. for 20 mins. The supernatant was aspirated and the protein concentration were quantified. 5× loading buffer was added into the samples, and the samples were heated at 70° C. for 10 minutes.
(§2) 2. Experimental procedure: 20 μg protein were added to each well then start SDS-PAGE electrophoresis. The protein was transferred to the PVDF membrane.
(§3) The blotting current was set at 250 mA for 90 min. 5% BSA in TBST was used to block the membrane for 1 h at room temperature. After diluting the primary antibody according to Table 2, the membrane was hybridized overnight at 4° C. The membrane was washed three times with TBST, 7 minutes each time. After diluting the secondary antibody, the membrane was incubated for 2 h at room temperature. The membrane was washed three times with TBST for 7 min each time.
(§4) ImageJ software was used to detect the gray value of each band and enter it into the following formula as the degradation rate (D): […]
(§5) D is the degradation rate, V refers to the gray value: target refers to the name of the protein targeted for degradation, housekeeping refers to housekeeping proteins such as GAPDH and beta-actin: DMSO refers to the solvent DMSO added only to dissolve PROTAC and incubate cells: Lane X refers to a lane with a specific incubation concentration; Lane Y refers to a lane where only the solvent DMSO is added to incubate cells.
(§6) A graph was drawn with degradation rate as the vertical axis and drug incubation concentration as the horizontal axis, and DC50 and Dmax were read and recorded in Tables 3, 4, 5 and 6.

[1] = tested on: HEK293/Luc (IFN-γ) stable cell line; assay: Luciferase reporter assay in HEK293/Luc (IFN-γ) cells; format: cell-based; conditions: Homo sapiens; stimulated with 30 ng/mL IFN-γ in HEK293/Luc; 6 h incubation; read-out: Absolute EC50
Method: HEK293/Luc (IFN-γ) stable cell line (Cat: M00953) and Fire-Lumi luciferase detection kit (Cat: L00877C) were purchased from GenScript. The complete culture medium formulation was DMEM containing 10% FBS and 1% Penicillin-Streptomycin. For EC50 detection, 60 μL HEK293/Luc (IFN-γ) cells were seeded at the density of 10,000 cells/well into 384 well assay plates (761601, NEST) using the medium above mentioned.
The working solutions for each sample were prepared triplicated at 9 gradient doses, starting from 10 µM and diluted by 4 folds. The IFN-γ working solution was prepared at 0.8 ng/mL concentration. The sample working solution and IFN-γ working solution were mixed at the volume of 1:1, and then 20 μl/well of the aliquot was added into the 384-well plate and cells were incubated at 37° C./5% CO2 for 6 h. 40 μL/well prewarmed detection reagents were added into the cells. Luminescent signals could be determined after 5-minute incubation. The data were plotted and four-parameter fitting was performed on the test data to obtain the relative EC50 value of the curve by Prism GraphPad 9 software (Table 1).

[2] = PK study in SD rats after a single intravenous administration; format: in vivo; conditions: for clearance / concentration at 0.083 h / concentration at 0.25 h / concentration at 0.5 h / concentration at 1 h / concentration at 2 h / concentration at 4 h / concentration at 8 h / concentration at 10 h / concentration at 24 h / AUC(0-t): Sprague-Dawley (SD), rat, plasma; for AUC(0-t): read-out: AUC0-24 h
Method: A PK study of the compounds after a single intravenous administration.
SD rats were randomly assigned to 5 groups (3 rats/group). Blood samples were collected from animals at 0.083 h, 0.25 h, 0.5 h, 1 h, 2 h, 4 h, 8 h, 10 h and 24 h after administration. Blood samples were collected in an anticoagulant tube containing EDTA-K2. The concentration of compounds in plasma were determined by an LC-MS/MS method with the lower limit of quantitation (LLOQ) of 0.50 ng/mL. Pharmacokinetic parameters were calculated with WinNonlin to assess the PK characteristics in SD rats. The formulation prescription was DMSO: Cremophor EL: 5% Glucose Solution=5:5:90 (v/v/v).

PTP1B = molecular target: T2, PTP1B (Homo sapiens, UniProt P18031); assay: Western blot, PTP1B degradation in HEK293T cells; format: cell-based; conditions: 48 hours incubation; for DC50 / Dmax: Western blot; for DC50: read-out: Relative DC50, PTP1B degradation; for Dmax: HEK-293T
T2 construct: endogenous in cells; host or cells: HEK293T
T2 sequence (P18031 1-435): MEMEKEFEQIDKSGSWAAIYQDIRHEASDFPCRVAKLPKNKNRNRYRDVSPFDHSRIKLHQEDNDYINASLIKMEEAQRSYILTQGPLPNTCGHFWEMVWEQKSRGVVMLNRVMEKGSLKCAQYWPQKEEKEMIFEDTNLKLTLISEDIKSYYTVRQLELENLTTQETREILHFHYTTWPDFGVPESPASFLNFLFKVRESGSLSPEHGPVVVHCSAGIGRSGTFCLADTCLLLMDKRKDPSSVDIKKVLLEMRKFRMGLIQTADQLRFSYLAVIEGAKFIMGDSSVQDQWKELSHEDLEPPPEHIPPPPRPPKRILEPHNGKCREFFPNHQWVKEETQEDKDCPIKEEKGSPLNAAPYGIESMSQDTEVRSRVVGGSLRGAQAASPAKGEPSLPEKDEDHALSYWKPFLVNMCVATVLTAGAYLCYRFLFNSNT
Method: as §1, §2, §3, §4, §5, §6

Row | Compound | DC50 (PTPN2) [nM] | Dmax (PTPN2) [%] | clearance ([2]; 1 mg/kg) [mL/min/kg] | concentration at 0.083 h ([2]; 1 mg/kg) [ng/mL] | concentration at 0.25 h ([2]; 1 mg/kg) [ng/mL] | concentration at 0.5 h ([2]; 1 mg/kg) [ng/mL] | concentration at 1 h ([2]; 1 mg/kg) [ng/mL] | concentration at 2 h ([2]; 1 mg/kg) [ng/mL] | concentration at 4 h ([2]; 1 mg/kg) [ng/mL] | concentration at 8 h ([2]; 1 mg/kg) [ng/mL] | concentration at 10 h ([2]; 1 mg/kg) [ng/mL] | concentration at 24 h ([2]; 1 mg/kg, 24 h) [ng/mL] | AUC(0-t) ([2]; 1 mg/kg) [ng·h/mL] | further results
1 | CC1(C)CC(Nc2cccc(-c3sc(C(=O)O)c(OCC(=O)O)c3Cl)c2)CCN1S(=O)(=O)Cc1ccc2cnc(N3CCC(c4ccc5c6c(cccc46)C(=O)N5C4CCC(=O)NC4=O)CC3)nc2c1 (stereo not shown) [Compound 16] | 38.8 | 96.5 | – | – | – | – | – | – | – | – | – | – | – | –
2 | CC1(C)CC(Nc2cccc(-c3sc(C(=O)O)c(OCC(=O)O)c3Cl)c2)CCN1S(=O)(=O)Cc1ccc2oc(N3CCC(c4ccc5c6c(cccc46)C(=O)N5C4CCC(=O)NC4=O)CC3)nc2c1 (stereo not shown) [Compound 21] | 10.1 | 100 | 0.661 | 18100 | 14600 | 9660 | 5980 | 2890 | 1000 | 372 | 321 | 98.6 | 27200 | Degradation ability on PTPN2 protein at different concentrations (FIG. 1), in words (PTPN2; 5 nM to 20 μM): good degradation ability on PTPN2 protein in a dose-dependent manner; also recorded: completely degraded at high concentrations; EC50 [1]: 48 nM; Effect on PTP1B compared with PTPN2 at the same concentration (selectivity, FIG. 1), in words (PTP1B): the degradation ability of PTPN2 is better than that of PTP1B; also recorded: much weaker than that of PTPN2; DC50 (PTP1B): 861 nM; Dmax (PTP1B): 97.3%
3 | O=C(O)COc1c(C(=O)O)sc(-c2cccc(NC3CCN(S(=O)(=O)Cc4ccc5oc(N6CCC(c7ccc8c9c(cccc79)C(=O)N8C7CCC(=O)NC7=O)CC6)nc5c4)CC3)c2)c1Cl (stereo not shown) [Compound 23] | – | – | 0.684 | 21700 | 17900 | 12600 | 7110 | 2420 | 525 | 110 | 95.1 | 39.6 | 24700 | –
4 | CC1(C)C[C@@H](Nc2cccc(-c3sc(C(=O)O)c(OCC(=O)O)c3Cl)c2)CCN1S(=O)(=O)Cc1cccc(NC(=O)N2CCC(c3ccc4c5c(cccc35)C(=O)N4[C@H]3CCC(=O)NC3=O)CC2)c1 [Ref. Cpd, reference compound] | 29.3 | 96.3 | – | – | – | – | – | – | – | – | – | – | – | EC50 [1]: 473 nM; Plasma concentration ([2]; 2 mg/kg, 24 h, LLOQ 0.50 ng/mL): BLOQ; clearance ([2]; 2 mg/kg): 4.46 mL/min/kg; concentration at 0.083 h ([2]; 2 mg/kg): 22700 ng/mL; concentration at 0.25 h ([2]; 2 mg/kg): 8300 ng/mL; concentration at 0.5 h ([2]; 2 mg/kg): 1290 ng/mL; concentration at 1 h ([2]; 2 mg/kg): 318 ng/mL; concentration at 2 h ([2]; 2 mg/kg): 148 ng/mL; concentration at 4 h ([2]; 2 mg/kg): 79.4 ng/mL; concentration at 8 h ([2]; 2 mg/kg): 29.3 ng/mL; concentration at 10 h ([2]; 2 mg/kg): 18.9 ng/mL; AUC(0-t) ([2]; 2 mg/kg): 7490 ng·h/mL; DC50 (PTP1B): 271 nM; Dmax (PTP1B): 96.8%

Second part, led by results:

Row | DC50 (PTPN2) [nM] | Dmax (PTPN2) [%] | clearance ([2]; 1 mg/kg) [mL/min/kg] | concentration at 0.083 h ([2]; 1 mg/kg) [ng/mL] | concentration at 0.25 h ([2]; 1 mg/kg) [ng/mL] | concentration at 0.5 h ([2]; 1 mg/kg) [ng/mL] | concentration at 1 h ([2]; 1 mg/kg) [ng/mL] | concentration at 2 h ([2]; 1 mg/kg) [ng/mL] | concentration at 4 h ([2]; 1 mg/kg) [ng/mL] | concentration at 8 h ([2]; 1 mg/kg) [ng/mL] | concentration at 10 h ([2]; 1 mg/kg) [ng/mL] | concentration at 24 h ([2]; 1 mg/kg, 24 h) [ng/mL] | AUC(0-t) ([2]; 1 mg/kg) [ng·h/mL] | Compound | further results
5 | 51.2 | 97.2 | 0.351 | 21900 | 17000 | 13200 | 8730 | 5430 | 2870 | 1090 | 809 | 206 | 48700 | O=C(O)COc1c(C(=O)O)sc(-c2cccc(NC3CCN(S(=O)(=O)Cc4ccc5oc(N6CCC(c7ccc8c9c(cccc79)C(=O)N8C7CCC(=O)NC7=O)CC6)nc5c4)C4(CC4)C3)c2)c1Cl (stereo not shown) [Compound 57] | –
6 | 55.2 | 100 | – | – | – | – | – | – | – | – | – | – | – | CC1(C)CC(Nc2cccc(-c3sc(C(=O)O)c(OC(F)(F)C(=O)O)c3Cl)c2)CCN1S(=O)(=O)Cc1ccc2oc(N3CCC(c4ccc5c6c(cccc46)C(=O)N5C4CCC(=O)NC4=O)CC3)nc2c1 (stereo not shown) [Compound 78] | –
7 | – | – | 0.568 | 19400 | 14900 | 11500 | 7920 | 3810 | 1050 | 345 | 279 | 57.5 | 29700 | [2H]C([2H])(c1ccc2oc(N3CCC(c4ccc5c6c(cccc46)C(=O)N5C4CCC(=O)NC4=O)CC3)nc2c1)S(=O)(=O)N1CCC(Nc2cccc(-c3sc(C(=O)O)c(OCC(=O)O)c3Cl)c2)CC1(C)C (stereo not shown) [Compound 151] | –
